According to US20260207563A1, “UREA COMPOUNDS AS ACTIVATORS OF POTASSIUM CHANNELS KV7.2/7.3 USEFUL IN THE TREATMENT OF CNS AND PNS DISORDERS” (ANGELINI PHARMA S.P.A., priority 2022, published 2026):

Legend:
Assay type in all cases: cell-based
[1] = target: T1, heteromeric KV7.2/KV7.3 channels (KCNQ2, KCNQ3) (Homo sapiens, UniProt O43525+O43526); assay: Automated patch-clamp (Sophion Qube 384) potency assay against KV7.2/KV7.3 channels; conditions: CHO-K1/Kv7.2/Kv7.3 cells; for EC50: EC50 from concentration-response of shift in Vhalf, 10 concentrations up to 30 μM, read-out: Kv7.2/7.3 EC50; for Kv7.2/7.3 ΔV1/2: maximal shift in the Vhalf from the top of the curve
T1 construct: expressed in transfected cells; host or cells: CHO-K1
In short: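 Activator potency: EC50 from 4-parameter logistic fit of mean Vhalf shift across ten 1-in-3 dilutions starting at 30 μM (n=4), with DMSO (typically 0.3%) control. Currents recorded by leak-subtracted whole-cell clamp of stable CHO-K1 KV7.2/KV7.3 cells, held at −80 mV, stepped −100 to +20 mV then 0 mV tails.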

[2] = target: T2, homomeric KV7.4 channel (KCNQ4) (Homo sapiens, UniProt P56696); assay: Automated patch-clamp (Qube) counter-screening assay against KV7.4 channel; conditions: CHO-K1 cells expressing KV7.4; class by maximal shift in the Vhalf at 30 μM
T2 construct: host or cells: CHO-K1
In short: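 EC50 and maximal shift in half-activation voltage come from 4-parameter logistic fits of mean Vhalf shifts. The series had ten 1-in-3 concentrations, highest 30 μM, each tested in quadruplicate. Recordings used automated Qube patch clamp on a stable CHO-K1 line expressing KCNQ4, and selectivity was judged from the 30 μM Vhalf shift.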

[3] = target: T3, heteromeric KV7.3/KV7.5 channel (KCNQ3, KCNQ5) (Homo sapiens, UniProt O43525+Q9NR82); assay: Automated patch-clamp counter-screening against KV7.3/KV7.5 channel; conditions: HEK293 cells expressing Kv7.3/KV7.5; class by maximal shift in the Vhalf at 30 μM
T3 construct: host or cells: HEK293
In short: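 Potency came from a 4-parameter logistic fit of mean voltage-of-half-activation shifts, yielding EC50 and maximal shift; selectivity was judged on the shift at 30 μM. Compounds were applied at ten 3-fold dilutions from 30 μM in quadruplicate to HEK293 cells stably carrying Kv7.3 with tet-inducible Kv7.5.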

Row | Compound | EC50 [1] [µM] | Kv7.2/7.3 ΔV1/2 [1] [mV] | Kv7.4 selectivity criteria [2] | Kv7.3/7.5 selectivity criteria [3]
1 | Cc1ccc2c(c1)CCC2NC(=O)NCc1ccnc(OCC(F)(F)F)c1 (stereo not drawn) [Compound 129] | 0.931 | 14.07 | A (Selective compounds showed Kv7.4 and/or Kv7.3/7.5 ΔV1/2 equal to or lower than 15 mV (letter A in table 3)) | A (Selective compounds showed Kv7.4 and/or Kv7.3/7.5 ΔV1/2 equal to or lower than 15 mV (letter A in table 3))
2 | O=C(NCc1ccnc(OCC(F)(F)F)c1)N[C@@H]1CCOc2ccccc21 [Compound 130] | 1.61 | 40.52 | B (Non-selective compounds showed Kv7.4 and/or Kv7.3/7.5 ΔV1/2 higher than 15 mV (letter B in table 3)) | B (Non-selective compounds showed Kv7.4 and/or Kv7.3/7.5 ΔV1/2 higher than 15 mV (letter B in table 3))
3 | O=C(NCc1ccnc(OCC(F)(F)F)c1)Nc1cccc2c1OCC2 [Compound 131] | 0.756 | 22.47 | B (Non-selective compounds showed Kv7.4 and/or Kv7.3/7.5 ΔV1/2 higher than 15 mV (letter B in table 3)) | A (Selective compounds showed Kv7.4 and/or Kv7.3/7.5 ΔV1/2 equal to or lower than 15 mV (letter A in table 3))
4 | O=C(NCc1ccnc(OCC(F)(F)F)c1)N[C@H]1CCOc2ccccc21 [Compound 132] | 3.24 | 19.47 | A (Selective compounds showed Kv7.4 and/or Kv7.3/7.5 ΔV1/2 equal to or lower than 15 mV (letter A in table 3)) | A (Selective compounds showed Kv7.4 and/or Kv7.3/7.5 ΔV1/2 equal to or lower than 15 mV (letter A in table 3))
5 | O=C(NCc1ccnc(OCC(F)(F)F)c1)N[C@@H]1COc2ccccc21 [Compound 133] | 2.8 | 34.47 | A (Selective compounds showed Kv7.4 and/or Kv7.3/7.5 ΔV1/2 equal to or lower than 15 mV (letter A in table 3)) | B (Non-selective compounds showed Kv7.4 and/or Kv7.3/7.5 ΔV1/2 higher than 15 mV (letter B in table 3))
6 | COc1ccc2c(c1)[C@H](NC(=O)NCc1ccnc(OCC(F)(F)F)c1)CC2 [Compound 134] | 3.09 | 43.25 | A (Selective compounds showed Kv7.4 and/or Kv7.3/7.5 ΔV1/2 equal to or lower than 15 mV (letter A in table 3)) | B (Non-selective compounds showed Kv7.4 and/or Kv7.3/7.5 ΔV1/2 higher than 15 mV (letter B in table 3))
7 | O=C(NCc1ccnc(OCC(F)(F)F)c1)NC1CCc2c(F)cc(F)cc21 (stereo not drawn) [Compound 135] | 0.351 | 22.58 | A (Selective compounds showed Kv7.4 and/or Kv7.3/7.5 ΔV1/2 equal to or lower than 15 mV (letter A in table 3)) | A (Selective compounds showed Kv7.4 and/or Kv7.3/7.5 ΔV1/2 equal to or lower than 15 mV (letter A in table 3))
8 | CC1Cc2cccc(NC(=O)NCc3ccnc(OCC(F)(F)F)c3)c2O1 (stereo not drawn) [Compound 136] | 0.565 | 16.11 | A (Selective compounds showed Kv7.4 and/or Kv7.3/7.5 ΔV1/2 equal to or lower than 15 mV (letter A in table 3)) | A (Selective compounds showed Kv7.4 and/or Kv7.3/7.5 ΔV1/2 equal to or lower than 15 mV (letter A in table 3))
9 | O=C(NCc1ccnc(OCC(F)(F)F)c1)NC1CCc2ccccc21 (stereo not drawn) [Compound 137] | 0.849 | 22.07 | B (Non-selective compounds showed Kv7.4 and/or Kv7.3/7.5 ΔV1/2 higher than 15 mV (letter B in table 3)) | B (Non-selective compounds showed Kv7.4 and/or Kv7.3/7.5 ΔV1/2 higher than 15 mV (letter B in table 3))
10 | O=C(NCc1ccnc(OCC(F)(F)F)c1)N[C@H]1CCCc2ccccc21 [Compound 138] | 0.195 | 17.98 | A (Selective compounds showed Kv7.4 and/or Kv7.3/7.5 ΔV1/2 equal to or lower than 15 mV (letter A in table 3)) | A (Selective compounds showed Kv7.4 and/or Kv7.3/7.5 ΔV1/2 equal to or lower than 15 mV (letter A in table 3))
11 | CC1CC(NC(=O)NCc2ccnc(OCC(F)(F)F)c2)c2ccccc21 (stereo not drawn) [Compound 139] | 2.24 | 34.89 | A (Selective compounds showed Kv7.4 and/or Kv7.3/7.5 ΔV1/2 equal to or lower than 15 mV (letter A in table 3)) | A (Selective compounds showed Kv7.4 and/or Kv7.3/7.5 ΔV1/2 equal to or lower than 15 mV (letter A in table 3))
12 | O=C(NCc1ccnc(OCC(F)(F)F)c1)Nc1cccc2c1OCCC2 [Compound 140] | 3.1 | 25.85 | A (Selective compounds showed Kv7.4 and/or Kv7.3/7.5 ΔV1/2 equal to or lower than 15 mV (letter A in table 3)) | A (Selective compounds showed Kv7.4 and/or Kv7.3/7.5 ΔV1/2 equal to or lower than 15 mV (letter A in table 3))
13 | O=C(NCc1ccnc(OCC(F)(F)F)c1)NCC1CCCc2ccccc21 (stereo not drawn) [Compound 141] | 0.285 | 17.59 | A (Selective compounds showed Kv7.4 and/or Kv7.3/7.5 ΔV1/2 equal to or lower than 15 mV (letter A in table 3)) | A (Selective compounds showed Kv7.4 and/or Kv7.3/7.5 ΔV1/2 equal to or lower than 15 mV (letter A in table 3))
14 | O=C(NCc1ccnc(OCC(F)(F)F)c1)N[C@H]1CCCOc2ccccc21 [Compound 142] | 0.657 | 16.4 | A (Selective compounds showed Kv7.4 and/or Kv7.3/7.5 ΔV1/2 equal to or lower than 15 mV (letter A in table 3)) | A (Selective compounds showed Kv7.4 and/or Kv7.3/7.5 ΔV1/2 equal to or lower than 15 mV (letter A in table 3))
15 | O=C(NCc1ccnc(OCC(F)(F)F)c1)N[C@H]1CCc2c(Cl)cccc21 [Compound 143] | 3.97 | 22.37 | A (Selective compounds showed Kv7.4 and/or Kv7.3/7.5 ΔV1/2 equal to or lower than 15 mV (letter A in table 3)) | B (Non-selective compounds showed Kv7.4 and/or Kv7.3/7.5 ΔV1/2 higher than 15 mV (letter B in table 3))
16 | O=C(NCc1ccnc(OCC(F)(F)F)c1)NC1CCc2sccc21 (stereo not drawn) [Compound 144] | 2.68 | 23.26 | A (Selective compounds showed Kv7.4 and/or Kv7.3/7.5 ΔV1/2 equal to or lower than 15 mV (letter A in table 3)) | A (Selective compounds showed Kv7.4 and/or Kv7.3/7.5 ΔV1/2 equal to or lower than 15 mV (letter A in table 3))
17 | O=C(NCc1ccnc(OCC(F)(F)F)c1)NCC1Cc2ccccc2C1 [Compound 145] | 1.61 | 23.71 | A (Selective compounds showed Kv7.4 and/or Kv7.3/7.5 ΔV1/2 equal to or lower than 15 mV (letter A in table 3)) | A (Selective compounds showed Kv7.4 and/or Kv7.3/7.5 ΔV1/2 equal to or lower than 15 mV (letter A in table 3))
18 | O=C(NCc1ccnc(OCC(F)(F)F)c1)NC1(CO)Cc2ccccc2C1 [Compound 146] | 6.54 | 30.86 | B (Non-selective compounds showed Kv7.4 and/or Kv7.3/7.5 ΔV1/2 higher than 15 mV (letter B in table 3)) | B (Non-selective compounds showed Kv7.4 and/or Kv7.3/7.5 ΔV1/2 higher than 15 mV (letter B in table 3))
